Laboratory results reported in US11311539B2, “Compositions and methods for treatment of fragile X syndrome” (Children's Hospital Medical Center, priority 2015, dated 2022).
“Also recorded” adds a separate entry of the source.

Assays:
FXS KO mice [1] = settings: literature; cited from earlier work
FXS KO mice [2] = settings: literature; cited from earlier work; remark: listed apart in the source
FXS KO mice [3] = settings: literature; cited from earlier work; remark: listed apart in the source
Fmr1 KO mice [4] = assay: Conditioned fear response to mild foot shock (cued portion); type: in vivo; settings: both dose levels (1 and 3 mg/kg), oral gavage, KO mice vs WT
Procedure: (§1) Throughout experiments in Fmr1 KO mice, we treated animals with 1 mg/kg AZD7325, 3 mg/kg AZD7325 or vehicle (VEH) by oral gavage to mimic the human exposure route. Juvenile mice were treated acutely and adult mice were treated chronically prior to and throughout behavior analysis.
(§2) Audiogenic seizure susceptibility in Fmr1 KO mice, which is thought to be the result of increased neuronal activity in response to sensory stimuli, peaks around the third week of life and manifests as wild running which is typically followed by tonic-clonic seizure. […] In adulthood, Fmr1 KO mice have abnormal motor responses to sensory stimuli compared to WT mice in an acoustic startle paradigm. […] This type of deficit in the VEH-treated Fmr1 KO mice is reminiscent of the exaggerated anxiety responses people with FXS commonly display.

Fmr1 KO mice [5] = assay: Novel object recognition paradigm; type: in vivo; settings: low dose (1 mg/kg), oral gavage, KO mice vs KO+VEH
Procedure: as §1, §2
Based upon preclinical data in FXS implicating insufficient GABA(A) activity in the pathophysiology of the disorder combined with preclinical and human evidence (unpublished data) supporting the tolerability and effectiveness of improving aberrant behavior, 4-amino-8-(2-fluoro-6-methoxy-phenyl)-N-propyl-cinnoline-3-carboxamide is an ideal molecule to develop as a clinical treatment in humans with FXS.

Fmr1 KO mice [6] = assay: Acoustic startle paradigm (whole body flinch, Vmax); type: in vivo; settings: adult Fmr1 KO mice
Procedure: In adulthood, Fmr1 KO mice have abnormal motor responses to sensory stimuli compared to WT mice in an acoustic startle paradigm.
as §1, §2

Fmr1 KO mice [7] = assay: Audiogenic seizure susceptibility (120 dB siren); type: in vivo; settings: oral gavage, acute, 30 min prior to testing, juvenile mice, VEH approximately 60%
Procedure: as §1, §2

FXS KO mice [8] = settings: preclinical literature; cited from earlier work
FXS KO mice [9] = settings: preclinical literature; cited from earlier work; remark: listed apart in the source

Oc1noc2c1CCNC2 [gaboxadol]
Prepulse inhibition (PPI) alterations (FXS KO mice [1]): reduced prepulse inhibition (PPI) alterations
Neuron excitability deficits in the amygdala (FXS KO mice [2]): restored neuron excitability deficits in the amygdala
Hyperactivity (FXS KO mice [3]): reduced hyperactivity

CCCNC(=O)c1nnc2c(-c3c(F)cccc3OC)cccc2c1N [AZD7325, 4-amino-8-(2-fluoro-6-methoxy-phenyl)-N-propyl-cinnoline-3-carboxamide]
Conditioned fear response, cued portion of the test (Fmr1 KO mice [4]): normalizing this behavior in KO mice
Object memory in novel object recognition (discrimination index) (Fmr1 KO mice [5]): attenuates deficits in object memory
Object memory in novel object recognition (discrimination index) (Fmr1 KO mice [5]; listed as 4-amino-8-(2-fluoro-6-methoxy-phenyl)-N-propyl-cinnoline-3-carboxamide): attenuates deficits in object memory; also recorded: greater interest in the novel object
Whole body flinching, low-level acoustic startle (Fmr1 KO mice [6]; 82 db white noise burst, 10 trial blocks, chronic low dose): significantly reduced whole body flinching
Whole body flinch response, high level acoustic stimulus (Fmr1 KO mice [6]; 120 dB stimulus, chronic treatment): improves this response to WT levels
Fmr1 KO mice displaying wild running followed by seizure (Fmr1 KO mice [7]; high dose (3 mg/kg)): 0%
Fmr1 KO mice displaying wild running followed by seizure (Fmr1 KO mice [7]; low dose (1 mg/kg)): 11%

CC(=O)[C@H]1CC[C@H]2[C@@H]3CC[C@H]4C[C@H](O)CC[C@]4(C)[C@H]3C(=O)C[C@]12C [alphaxalone]
Anxiety (FXS KO mice [8]): reductions in anxiety
Audiogenic seizures (FXS KO mice [9]): rescue of audiogenic seizures
